Assays:
[1] = target: D(1A) dopamine receptor (Homo sapiens, UniProt P21728)
[2] = target: T1, Alpha-1A adrenergic receptor (Homo sapiens, UniProt P35348)
T1 sequence (P35348 whole entry): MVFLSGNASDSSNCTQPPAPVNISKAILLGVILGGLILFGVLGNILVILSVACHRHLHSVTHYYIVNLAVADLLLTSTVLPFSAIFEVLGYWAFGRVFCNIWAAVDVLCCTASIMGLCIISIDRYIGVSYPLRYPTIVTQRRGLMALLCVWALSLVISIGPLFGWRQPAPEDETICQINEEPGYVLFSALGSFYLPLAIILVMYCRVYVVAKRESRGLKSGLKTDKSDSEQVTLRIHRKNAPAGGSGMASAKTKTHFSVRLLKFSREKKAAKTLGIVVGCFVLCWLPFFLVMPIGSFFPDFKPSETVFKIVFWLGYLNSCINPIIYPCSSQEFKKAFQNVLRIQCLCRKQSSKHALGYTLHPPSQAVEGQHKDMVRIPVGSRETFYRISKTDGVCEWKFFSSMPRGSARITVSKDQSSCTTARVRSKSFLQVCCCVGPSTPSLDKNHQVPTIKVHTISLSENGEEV

[3] = target: T2, Retinoic acid receptor beta (Homo sapiens, UniProt P10826); assay type: functional, cell-based
T2 sequence (P10826 whole entry): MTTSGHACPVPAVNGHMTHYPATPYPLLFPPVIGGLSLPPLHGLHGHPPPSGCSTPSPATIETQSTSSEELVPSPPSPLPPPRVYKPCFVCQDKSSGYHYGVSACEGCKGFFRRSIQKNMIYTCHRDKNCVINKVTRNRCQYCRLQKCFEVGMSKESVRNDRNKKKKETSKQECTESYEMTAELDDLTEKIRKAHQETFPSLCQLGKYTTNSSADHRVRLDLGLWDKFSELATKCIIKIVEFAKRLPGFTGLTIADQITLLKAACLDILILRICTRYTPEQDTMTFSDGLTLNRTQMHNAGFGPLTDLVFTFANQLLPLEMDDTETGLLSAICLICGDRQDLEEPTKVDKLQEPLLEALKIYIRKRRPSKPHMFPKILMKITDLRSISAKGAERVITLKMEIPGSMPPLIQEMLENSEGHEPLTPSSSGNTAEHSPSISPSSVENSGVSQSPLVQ

[4] = target: T3, Retinoic acid receptor gamma (Homo sapiens, UniProt P13631); assay type: functional, cell-based
T3 sequence (P13631 whole entry): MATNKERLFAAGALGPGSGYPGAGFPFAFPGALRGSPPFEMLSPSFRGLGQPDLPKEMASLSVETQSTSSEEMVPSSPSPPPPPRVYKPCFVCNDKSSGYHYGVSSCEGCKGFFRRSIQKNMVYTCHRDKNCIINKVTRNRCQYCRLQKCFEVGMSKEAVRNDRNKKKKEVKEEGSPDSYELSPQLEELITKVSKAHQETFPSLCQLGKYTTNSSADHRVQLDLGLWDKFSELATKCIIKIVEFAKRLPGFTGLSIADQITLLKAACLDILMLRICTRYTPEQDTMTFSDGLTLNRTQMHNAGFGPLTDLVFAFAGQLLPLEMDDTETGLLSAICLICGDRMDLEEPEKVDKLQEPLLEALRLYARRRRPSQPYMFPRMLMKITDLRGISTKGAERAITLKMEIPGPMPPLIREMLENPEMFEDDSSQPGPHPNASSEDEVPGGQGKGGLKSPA

[5] = target: T4, Oxysterols receptor LXR-alpha (Homo sapiens, UniProt Q13133); assay type: functional
T4 sequence (Q13133 whole entry): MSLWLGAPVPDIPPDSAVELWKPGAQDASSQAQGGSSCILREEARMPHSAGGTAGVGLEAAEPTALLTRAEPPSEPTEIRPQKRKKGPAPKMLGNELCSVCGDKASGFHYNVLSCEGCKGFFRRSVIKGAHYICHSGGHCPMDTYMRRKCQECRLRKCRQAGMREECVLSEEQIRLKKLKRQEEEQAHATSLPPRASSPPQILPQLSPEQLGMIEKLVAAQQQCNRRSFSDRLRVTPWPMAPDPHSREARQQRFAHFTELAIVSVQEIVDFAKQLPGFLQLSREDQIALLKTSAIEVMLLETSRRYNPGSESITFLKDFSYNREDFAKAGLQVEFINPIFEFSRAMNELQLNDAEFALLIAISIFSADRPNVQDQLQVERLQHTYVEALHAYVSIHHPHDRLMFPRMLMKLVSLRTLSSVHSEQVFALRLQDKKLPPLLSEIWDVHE

[6] = target: T4, Oxysterols receptor LXR-alpha; assay type: functional; remark: listed apart in the source
[7] = target: T5, Oxysterols receptor LXR-beta (Homo sapiens, UniProt P55055); assay type: functional
T5 sequence (P55055 whole entry): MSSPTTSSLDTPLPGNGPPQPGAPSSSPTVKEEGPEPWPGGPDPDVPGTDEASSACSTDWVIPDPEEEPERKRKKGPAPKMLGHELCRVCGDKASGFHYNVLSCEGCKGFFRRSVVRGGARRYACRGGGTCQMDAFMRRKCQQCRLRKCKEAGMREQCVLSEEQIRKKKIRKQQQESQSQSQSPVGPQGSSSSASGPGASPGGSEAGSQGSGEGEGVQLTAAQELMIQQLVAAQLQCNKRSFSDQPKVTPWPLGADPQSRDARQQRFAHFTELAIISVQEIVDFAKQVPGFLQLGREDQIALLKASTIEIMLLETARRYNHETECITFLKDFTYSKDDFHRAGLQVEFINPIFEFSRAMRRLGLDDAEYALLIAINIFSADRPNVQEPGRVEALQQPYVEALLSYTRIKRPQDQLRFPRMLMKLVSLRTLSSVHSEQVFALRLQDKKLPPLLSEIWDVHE

[8] = target: 5-hydroxytryptamine receptor 5A (Homo sapiens, UniProt P47898)
Sequence of 5-hydroxytryptamine receptor 5A (P47898 whole entry): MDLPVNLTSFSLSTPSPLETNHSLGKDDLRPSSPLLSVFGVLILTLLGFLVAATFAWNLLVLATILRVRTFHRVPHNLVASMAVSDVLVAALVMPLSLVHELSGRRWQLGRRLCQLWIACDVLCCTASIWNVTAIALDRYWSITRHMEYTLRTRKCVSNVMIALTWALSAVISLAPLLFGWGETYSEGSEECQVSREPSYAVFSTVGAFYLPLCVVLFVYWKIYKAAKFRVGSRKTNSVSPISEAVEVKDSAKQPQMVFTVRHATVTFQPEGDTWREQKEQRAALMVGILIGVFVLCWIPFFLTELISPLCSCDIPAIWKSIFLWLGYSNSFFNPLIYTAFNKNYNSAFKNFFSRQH

[9] = target: D(1B) dopamine receptor (Homo sapiens, UniProt P21918)
Sequence of D(1B) dopamine receptor (P21918 whole entry): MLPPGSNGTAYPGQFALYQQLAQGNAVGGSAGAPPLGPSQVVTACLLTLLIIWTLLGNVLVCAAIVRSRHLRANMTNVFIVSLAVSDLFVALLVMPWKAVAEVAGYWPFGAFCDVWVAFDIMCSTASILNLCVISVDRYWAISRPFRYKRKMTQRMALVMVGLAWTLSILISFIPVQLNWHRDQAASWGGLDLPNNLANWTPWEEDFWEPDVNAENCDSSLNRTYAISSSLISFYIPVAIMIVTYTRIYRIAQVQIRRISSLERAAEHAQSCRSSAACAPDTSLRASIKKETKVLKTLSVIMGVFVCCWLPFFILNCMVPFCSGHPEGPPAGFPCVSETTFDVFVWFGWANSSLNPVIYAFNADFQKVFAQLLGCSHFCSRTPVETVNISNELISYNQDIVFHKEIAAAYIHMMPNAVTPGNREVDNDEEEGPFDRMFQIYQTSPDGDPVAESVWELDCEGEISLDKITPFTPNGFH
Also: assay procedure not described here.

Sequence of D(1A) dopamine receptor (P21728 whole entry): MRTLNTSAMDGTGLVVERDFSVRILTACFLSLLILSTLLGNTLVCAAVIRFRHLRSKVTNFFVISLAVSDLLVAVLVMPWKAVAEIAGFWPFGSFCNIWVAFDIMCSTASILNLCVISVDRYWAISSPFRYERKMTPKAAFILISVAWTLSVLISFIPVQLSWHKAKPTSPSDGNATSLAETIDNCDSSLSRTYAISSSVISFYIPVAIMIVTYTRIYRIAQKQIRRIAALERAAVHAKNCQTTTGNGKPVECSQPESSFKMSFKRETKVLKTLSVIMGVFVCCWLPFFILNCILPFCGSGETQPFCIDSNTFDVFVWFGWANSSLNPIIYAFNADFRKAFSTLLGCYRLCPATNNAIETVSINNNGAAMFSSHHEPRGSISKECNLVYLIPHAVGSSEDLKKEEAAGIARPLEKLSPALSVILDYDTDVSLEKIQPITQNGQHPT

| SMILES | AC50 [1] [µM] | AC50 [2] [µM] | AC50 [3] [µM] | AC50 [4] [µM] | AC50 [5] [µM] | AC50 [6] [µM] | AC50 [7] [µM] | AC50 [8] [µM] | AC50 [9] [µM] |
| --- | --- | --- | --- | --- | --- | --- | --- | --- | --- |
| O=C(Nc1cccc2c(=O)cc(-c3nnn[nH]3)oc12)c1ccc(OCCCCc2ccccc2)cc1 | 2.88 | 13.3 | – | – | – | – | – | – | – |
| CC(/C=C1\SC(=S)N(CC(=O)O)C1=O)=C\c1ccccc1 | – | – | > 30 | > 30 | > 30 | > 30 | > 30 | – | – |
| CC1(C)S[C@@H]2[C@H](NC(=O)[C@H](N)c3ccc(O)cc3)C(=O)N2[C@H]1C(=O)O [AMOXICILLIN] | – | – | 18 | 9.1 | 19 | > 30 | > 30 | > 10 | > 10 |
| COC(=O)[C@H](c1ccccc1Cl)N1CCc2sccc2C1 [CLOPIDOGREL] | – | – | – | – | – | – | – | > 10 | > 10 |
| CCC(=O)O[C@@H](O[P@](=O)(CCCCc1ccccc1)CC(=O)N1C[C@H](C2CCCCC2)C[C@H]1C(=O)O)C(C)C [FOSINOPRIL] | 21.6 | > 30 | – | – | – | – | – | – | – |
| Cc1cnc(NC(=O)C2=C(O)c3ccccc3S(=O)(=O)N2C)s1 [MELOXICAM] | – | – | – | – | – | – | – | > 10 | > 10 |
| CN(C)c1cc(CNCC(C)(C)C)c(O)c2c1C[C@H]1C[C@H]3[C@H](N(C)C)C(O)=C(C(N)=O)C(=O)[C@@]3(O)C(O)=C1C2=O [OMADACYCLINE] | > 30 | > 30 | – | – | – | – | – | – | – |
| CNC(=O)c1cc(Oc2ccc(NC(=O)Nc3ccc(Cl)c(C(F)(F)F)c3)c(F)c2)ccn1 [REGORAFENIB] | 4.15 | > 30 | > 30 | 9 | > 30 | > 30 | > 30 | – | – |
| CCOc1cc(CC(=O)N[C@@H](CC(C)C)c2ccccc2N2CCCCC2)ccc1C(=O)O [REPAGLINIDE] | – | – | > 30 | > 30 | > 30 | > 30 | > 30 | – | – |
| CCCCNc1ccc(C(=O)OCCN(C)C)cc1 [TETRACAINE] | – | – | – | – | – | – | – | > 10 | > 10 |
| CN1CCN(CCCN2c3ccccc3Sc3ccc(S(=O)(=O)N(C)C)cc32)CC1 [THIOPROPERAZINE] | > 30 | 0.003 | – | – | – | – | – | – | – |
